In general, kcat refers to the maximal rate divided by the concentration of active sites.

Data on 1 compound can be found in article PMC4291348, “A Continuous Enzyme-Coupled Assay for Triphosphohydrolase Activity of HIV-1 Restriction Factor SAMHD1” (Antimicrobial Agents and Chemotherapy, 2014).

The structures appear in SMILES notation.

Assay [1] addresses T1, SAMHD1 (residues 115 to 626) (Homo sapiens, UniProt Q9Y3Z3).
T1 construct: The catalytic domain of SAMHD1 (residues 115 to 626) was expressed and purified as previously described; made in house
The assay is described as follows: Continuous enzyme-coupled (Ppx1 / MDCC-PBP) real-time assay of SAMHD1 triphosphohydrolase activity. In kind it is biochemical. Conditions: GTP activator 0.2 mM, 25°C. The protocol:
The steady-state kinetics of SAMHD1 were determined by a coupled-enzyme assay using Ppx1 and a fluorescent phosphate biosensor, MDCC-PBP. The reactions were set up in 20-μl volumes in 384-well low-protein-binding microplates (Corning, USA), and the time-dependent fluorescence signal was measured using a Tecan Saffire^2 multiwell plate reader (Männedorf, Switzerland). Solutions containing SAMHD1 (residues 115 to 626), Ppx1, MDCC-PBP, an activator, and an inhibitor (if present) were incubated for 5 min at 25°C before the reaction was initiated by the addition of the substrate. The final concentrations were 100 nM SAMHD1, 10 nM Ppx1, and 40 μM MDCC-PBP. Depending on the experiment, the concentration of the substrate, the activator, or the inhibitor varied while the substrate and/or the activator was held constant at 1 mM and 0.2 mM, respectively. The fluorescence intensity was recorded at 430 nm for excitation and 465 nm for emission wavelengths, with a 7-nm slit width, at 8- to 10-s time intervals over a period of 10 to 30 min. The standard curves were obtained by incubating 40 μM MDCC-PBP with different concentrations of phosphate (Pi) and measuring the fluorescence, as discussed above. The fluorescence response was linear and in the range of 0 to 20 μM Pi.
The steady-state rates were obtained from the time courses of Pi formation by linear regression of the data points in the linear phase of the reaction. Rates were divided by the SAMHD1 concentration and were plotted versus the activator, substrate, or inhibitor concentration. Apparent dissociation constants for the activator (KA) or the substrate binding (KS) and the catalytic constant (kcat) were determined by nonlinear least-squares fitting using either a hyperbolic or a Hill-function equation in the software package GraFit 7.0.3 (Erithacus Software, United Kingdom) ([22]). […] Data from the three different experiments were analyzed by a least-squares fit using the equation for competitive inhibition. The fits for the three data sets yielded invariant values for the inhibition constants (Ki), supporting a competitive mode of inhibition. All measurements were performed in triplicate in the reaction buffer.

In the next assay the test system is T2, SAMHD1.
T2 construct: The catalytic domain of SAMHD1 (residues 115 to 626) was expressed and purified as previously described; made in house
The assay is described as follows: IEX-HPLC assay of SAMHD1 triphosphohydrolase activity. In kind it is biochemical, human. Conditions: 0.2 mM GTP activated, 1 mM dATP, three enzyme concentrations 2.5, 5, 7.5 µM. Here is the method: IEX-HPLC assay of SAMHD1 Triphosphohydrolase activity
In a typical assay 2-10 µM SAMHD1 was incubated with 0.2 mM GTP activator and 1mM dNTP as substrate in Reaction buffer, 20mM Tris-HCl, 150 mM NaCl, 5 mM MgCl2, 2 mM TCEP (pH 7.5). The reaction was allowed to proceed and samples withdrawn at timed intervals up to 5 minutes and terminated by 10 fold dilution into 18.0% acetonitrile, 25mM Tris-HCl, 1 mM EDTA pH 8.0. The nucleotide hydrolysis reactions were analysed by anion exchange HPLC using a DNA-PAC100 (4 x 50mm) column (Dionex). The column was equilibrated at 30°C at 1 mL/min in 25mM Tris-HCl, 0.5% acetonitrile pH 8.0 (Buffer A). […] Absorbance data from the column eluent was continuously monitored between 200-400nm (2 nm interval) using MD-2010 photodiode array detector (JASCO). Peak integration of the absorbance data recorded at 260 nm was used to quantify the amount of substrate and products during at each time point of the reaction. Initial rates of dNTP hydrolysis were determined from the linear part of plots of substrate against time.
Supplementary Figure S1 - HPLC traces of 0.2 mM GTP activated SAMHD1 hydrolysis of 1 mM dATP. […] Inset, kcat was determined by linear regression of Kapp over three enzyme concentrations, 2.5 µM, 5 µM and 7.5
µM. Error bars represent the SEM of three independent measurements recorded at each substrate concentration. […]

T1 sequence (Q9Y3Z3 115-626): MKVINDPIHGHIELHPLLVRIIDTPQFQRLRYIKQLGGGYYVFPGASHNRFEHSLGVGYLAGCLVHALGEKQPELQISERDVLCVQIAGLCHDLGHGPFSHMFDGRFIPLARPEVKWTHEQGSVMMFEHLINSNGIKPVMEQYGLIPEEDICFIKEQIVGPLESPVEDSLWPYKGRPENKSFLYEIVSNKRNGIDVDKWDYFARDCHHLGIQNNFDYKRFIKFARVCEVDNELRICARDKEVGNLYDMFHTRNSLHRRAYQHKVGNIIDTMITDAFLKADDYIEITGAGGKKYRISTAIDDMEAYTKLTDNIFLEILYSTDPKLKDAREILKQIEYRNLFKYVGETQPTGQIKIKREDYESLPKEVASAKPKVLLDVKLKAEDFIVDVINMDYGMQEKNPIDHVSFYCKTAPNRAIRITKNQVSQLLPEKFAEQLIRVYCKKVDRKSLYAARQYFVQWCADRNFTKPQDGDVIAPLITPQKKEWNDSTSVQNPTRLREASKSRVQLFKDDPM

Regarding `Nc1ncnc2c1ncn2[C@H]1C[C@H](O)[C@@H](COP(=O)(O)OP(=O)(O)OP(=O)(O)O)O1` [dATP], the “KS, apparent dissociation constant for substrate binding” value in assay [1] is 42.1 ± 6.9 µM. The figures for the kcat (in assay [1]; in the assay with SAMHD1) were 0.94 ± 0.06 s⁻¹ and 0.99 s⁻¹, respectively.
